The values that follow come from patent publication US8349824B2, “Triazolopyridine compounds” (Hoffmann-La Roche Inc., priority 2010, dated 2013).

Where only a bound is given, the exact number is not on record here.

One series concerns the target T1, human PDE10A full length (Homo sapiens, UniProt Q9Y233).
T1 construct: purchased Enzo Life Science, Lausen, Switzerland SE-534
In words: PDE10A Scintillation Proximity Assay (SPA), human PDE10A full length assay. As to conditions: 50 nM cGMP + 50 nM [3H]-cGMP, 20 minutes at room temperature, read-out: PDE10A inhibition IC50. The class given is biochemical. The essentials: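 SPA format with full-length enzyme in 20 mM HEPES pH 7.5, 10 mM MgCl2, 0.05 mg/ml BSA, substrate 50 nM cGMP plus 50 nM [3H]-cGMP. Reaction started with substrate, run 20 min at room temperature, stopped with YSi-SPA beads in zinc sulphate. IC50 from scintillation counts over an inhibitor concentration range.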
(In general: In a scintillation proximity assay essentially only radioactivity close to the scintillant gives light.)

T1 sequence (Q9Y233 1-779 isoform Q9Y233-1): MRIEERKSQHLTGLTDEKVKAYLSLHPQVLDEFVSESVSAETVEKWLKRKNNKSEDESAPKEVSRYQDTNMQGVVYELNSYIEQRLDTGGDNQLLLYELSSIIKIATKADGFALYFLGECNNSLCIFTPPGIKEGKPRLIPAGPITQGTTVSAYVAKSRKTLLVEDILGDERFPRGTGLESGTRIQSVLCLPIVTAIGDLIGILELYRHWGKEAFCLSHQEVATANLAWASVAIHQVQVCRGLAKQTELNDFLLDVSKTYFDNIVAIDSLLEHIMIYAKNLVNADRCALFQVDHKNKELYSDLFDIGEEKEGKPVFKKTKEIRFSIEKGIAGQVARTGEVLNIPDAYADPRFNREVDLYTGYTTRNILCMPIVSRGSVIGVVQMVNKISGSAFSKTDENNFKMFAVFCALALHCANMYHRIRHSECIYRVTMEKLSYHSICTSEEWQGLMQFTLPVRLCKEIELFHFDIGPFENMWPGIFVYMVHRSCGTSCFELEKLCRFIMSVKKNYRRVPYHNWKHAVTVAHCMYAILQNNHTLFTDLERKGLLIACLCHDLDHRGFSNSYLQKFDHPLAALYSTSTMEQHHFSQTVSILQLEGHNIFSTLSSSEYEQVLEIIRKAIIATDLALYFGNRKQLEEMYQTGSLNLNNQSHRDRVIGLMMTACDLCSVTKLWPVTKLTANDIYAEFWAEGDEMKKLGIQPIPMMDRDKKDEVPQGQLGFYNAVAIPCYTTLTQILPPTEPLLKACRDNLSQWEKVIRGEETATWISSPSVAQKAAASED

Turning to `CN(C)C(=O)c1cnn(C)c1C(=O)Nc1ccn2nc(-c3cccnc3F)nc2c1` [Example 109, N5-(2-(2-fluoropyridin-3-yl)-[1,2,4]triazolo[1,5-a]pyridin-7-yl)-N4,N4,1-trimethyl-1H-pyrazole-4,5-dicarboxamide], the melting point (commonly the temperature, or range, at which the solid turns liquid) lay in the range of 249 to 251 °C. Also, the IC50 (in general, the concentration that gives 50% inhibition) on human PDE10A full length amounted to 3.74 nM.

With `Cn1ncc(C(=O)N2CCOCC2)c1C(=O)Nc1ccn2nc(-c3cccnc3F)nc2c1` [Example 111, 2-Methyl-4-(morpholine-4-carbonyl)-2H-pyrazole-3-carboxylic acid [2-(2-fluoro-pyridin-3-yl)-[1,2,4]triazolo[1,5-a]pyridin-7-yl]-amide], the melting point lay in the range of 267 to 269 °C. Moreover, the IC50 on human PDE10A full length came out at 6.62 nM.

For `Cn1ncc(C(=O)N2CC3(COC3)C2)c1C(=O)Nc1ccn2nc(N3CCOCC3)nc2c1` [Example 112, 2-Methyl-4-(2-oxa-6-aza-spiro[3.3]heptane-6-carbonyl)-2H-pyrazole-3-carboxylic acid (2-morpholin-4-yl-[1,2,4]triazolo[1,5-a]pyridin-7-yl)-amide], the melting point was > 300 °C. For the same compound, the IC50 on human PDE10A full length was 57.3 nM.

In the case of `CN(CCF)c1nc2cc(NC(=O)c3c(C(=O)N4CC(F)C4)cnn3C)ccn2n1` [Example 114, 4-(3-Fluoro-azetidine-1-carbonyl)-2-methyl-2H-pyrazole-3-carboxylic acid {2-[(2-fluoro-ethyl)-methyl-amino]-[1,2,4]triazolo[1,5-a]pyridin-7-yl}-amide], the melting point was 233 to 236 °C. For the same compound, the IC50 on human PDE10A full length stood at 5.66 nM.

For the compound `Cn1ncc(C(=O)N2CCOCC2)c1C(=O)Nc1ccn2nc(-c3ccnc(F)c3)nc2c1` [Example 117, N-(2-(2-fluoropyridin-4-yl)-[1,2,4]triazolo[1,5-a]pyridin-7-yl)-1-methyl-4-(morpholine-4-carbonyl)-1H-pyrazole-5-carboxamide], the melting point was > 280 °C. The IC50 at human PDE10A full length stood at 15 nM.

`Cn1ncc(C(=O)N2CCC2)c1C(=O)Nc1ccn2nc(-c3ccnc(F)c3)nc2c1` [Example 118, 4-(Azetidine-1-carbonyl)-2-methyl-2H-pyrazole-3-carboxylic acid [2-(2-fluoro-pyridin-4-yl)-[1,2,4]triazolo[1,5-a]pyridin-7-yl]-amide]: the melting point is > 280 °C. Also, the IC50 on human PDE10A full length came to 6.78 nM.

On to `Cn1ncc(C(=O)N2CCC2)c1C(=O)Nc1ccn2nc(-c3cccc(F)n3)nc2c1` [Example 119, 4-(Azetidine-1-carbonyl)-2-methyl-2H-pyrazole-3-carboxylic acid [2-(6-fluoro-pyridin-2-yl)-[1,2,4]triazolo[1,5-a]pyridin-7-yl]-amide], for which the melting point turned out to be 263.9 °C. Moreover, the IC50 on human PDE10A full length stood at 1.2 nM.

`CN(C)C(=O)c1cnn(C)c1C(=O)Nc1ccn2nc(-c3cccc(F)n3)nc2c1` [Example 120, 2-Methyl-2H-pyrazole-3,4-dicarboxylic acid 4-dimethylamide 3-{[2-(6-fluoro-pyridin-2-yl)-[1,2,4]triazolo[1,5-a]pyridin-7-yl]-amide}] showed a melting point of 264.4 °C. The IC50 at human PDE10A full length stood at 1.32 nM.

The compound `CN(C(=O)c1cnn(C)c1C(=O)Nc1ccn2nc(N3CCCC3)nc2c1)C1CC1` [Example 123, 2-Methyl-2H-pyrazole-3,4-dicarboxylic acid 4-(cyclopropyl-methyl-amide)3-[(2-pyrrolidin-1-yl-[1,2,4]triazolo[1,5-a]pyridin-7-yl)-amide]] returned a melting point of 274.3 °C. Besides, the half-inhibitory concentration (IC50) at human PDE10A full length worked out at 0.6 nM.

With `CCN(C)C(=O)c1cnn(C)c1C(=O)Nc1ccn2nc(N3CCCC3)nc2c1` [Example 124, 2-Methyl-2H-pyrazole-3,4-dicarboxylic acid 4-(ethyl-methyl-amide)3-[(2-pyrrolidin-1-yl-[1,2,4]triazolo[1,5-a]pyridin-7-yl)-amide]], the melting point was 323.1 °C. In addition, the concentration for half-maximal inhibition (IC50) at human PDE10A full length amounted to 0.86 nM.
